According to US7598234B2, “Steroid derived antibiotics” (Brigham Young University, priority 1998, dated 2009):
In brackets after ≈: the same amount, converted by molar mass.

Columns and labels:
Gram-negative bacteria = test: Sensitization to erythromycin, ester and amide side chain compounds (Table 14); format: cell-based; settings: in words; compared with Table 14 compounds
Description: (§1) Aliquots of 1 mL of the suspension were added to test tubes containing 1 mL TSB and incrementally varied concentrations of cholic acid derivatives and/or erythromycin or novobiocin. In the sensitization experiments, erythromycin or novobiocin were added 15 minutes later than the cholic acid derivatives. The samples were subjected to stationary incubation at 37° C. for 24 hours. Sample turbidity was determined by measuring absorption at 760 nm (HP 8453 UV-Visible Chemstation, Hewlett Packard). Additionally, an alliquot from each of the samples showing no measurable turbidity was subcultured on TSA plates (alliquots were diluted to provide fewer than 300 CFU). Colonies that grew on the subculture after overnight incubation were counted and the number of CFU/mL in the samples were calculated. The calculated values were compared to the number of CFU/mL in the original inoculum.
Ability to permeabilize outer membrane: Compounds 11, 106, and 108-114 (FIG. 1) were tested for antibiotic activity. They were also tested for the ability to permeabilize the outer membrane of Gram-negative bacteria, causing sensitization to hydrophobic antibiotics that cannot cross the outer membrane. The permeabilization of the outer membrane was measured using erythromycin and novobiocin.
Ester and amide side chains: Additional compounds, for example, compounds with amide and ester side chains, were tested.

[1] = tested on: Staphylococcus aureus ATCC 25923; test: MIC and MBC measurement with Staphylococcus aureus ATCC 25923; format: cell-based; settings: Table 16; S. aureus (ATTC 25923)
Excerpt: (§2) General: Microorganisms. Reference strains were purchased from the American Type Culture Collection (Rockville, Md.) or Bactrol disks from Difeo Laboratories (Detroit, Mich.). The following specific ATCC strains were used: 10798 Escherichia coli, 25922 Escherichia coli, 13883 Klebsiella pneumoniae, 27853 Pseudomonas aeruginosa, 14028 Salmonella typhimurium, 29212 Enterococcus faecalis, 25923 Staphylococcus aureus, 19615 Streptococcus pyogenes, and 90028 Candida albicans. Bacterial strains were maintained on Mueller-Hinton agar plates, and Candida albicans was maintained on Sabouraud Dextrose agar plates.
(§3) Tryptic soy broth (TSB) was made by dissolving 27.5 grams of tryptic soy broth without dextrose (DIFCO Laboratories) in 1 liter of deionized water and sterilizing at 121° C. for 15 minutes. Solid agar (TSA) plates were made by dissolving 6.4 grams of tryptic soy broth and 12 grams of agar (purified grade, Fischer Scientific) in 800 mL of deionized water and sterilizing at 121° C. for 20 minutes. Aliquots (20 mL) of the homogeneous solution were then poured in sterile plastic petri dishes (100×15 mm, Fisher Scientific). Solutions of compounds were made by dissolving the HCl salt of the respective compound into an appropriate amount of deionized and sterilized water followed by microfiltration.
as §1, with “inoculum. […]” for “inoculum.”

[2] = Description: (§4) Minimum inhibition concentrations (MIC) and minimum hemolytic concentrations (MHC) were measured as described in Li et al., Antimicrob. Agents. Chemother., 1999, 43, 1347.
E. coli (ATCC 25922) [3] = test: MIC and MBC measurement with E. coli (ATCC 25922); format: cell-based, Escherichia coli; settings: Table 16; E. coli (ATTC 25922)
Excerpt: as §2, §3
as §1, with “inoculum. […]” for “inoculum.”

E. coli (ATCC 25922) [4] = test: Sensitization to erythromycin, E. coli (ATCC 25922); format: cell-based, Escherichia coli; settings: Table 16; E. coli
Description: FICs can be performed by checkerboard titrations of compounds in one dimension of a microtiter plate, and of antibiotics in the other dimension, for example. The FIC is calculated by looking at the impact of one antibiotic on the MIC of the other and vice versa. […] Preferably, an FIC of less than 0.5 is obtained for synergism. As used herein, FIC can be determined as follows:
as §1
Concentrations of 0.5, 1.0 or 3.0 μg/mL of these antibiotics were used, and the concentrations of the cholic acid derivatives required to inhibit bacterial growth of Gram-negative strains were determined.
as §4

SMILES	activity as a permeabilizer (Gram-negative bacteria)	MIC (MIC^a) [1] [µg/mL]	MHC (minimum hemolytic concentration) [2] [µg/mL]	MIC (MIC^b) (E. coli (ATCC 25922) [3]) [µg/mL]	c: concentration required to lower the MIC of erythromycin from 36 to 1 μg/mL (E. coli (ATCC 25922) [4]) [µg/mL]
C[C@H](CCCO)[C@H]1CC[C@H]2[C@@H]3[C@H](N)C[C@@H]4C[C@H](N)CC[C@]4(C)[C@H]3C[C@H](N)[C@]12C [Compound 206]	ineffective as a permeabilizer	–	–	–	–
C[C@H](CCC(=O)O)[C@H]1CC[C@H]2[C@@H]3[C@H](OC(=O)CN)C[C@@H]4C[C@H](OC(=O)CN)CC[C@]4(C)[C@H]3C[C@H](OC(=O)CN)[C@]12C [Compound 327]	–	>100	>100	>100	>100
CCCCCCCCOC(=O)CC[C@@H](C)[C@H]1CC[C@H]2[C@@H]3[C@H](OC(=O)CN)C[C@@H]4C[C@H](OC(=O)CN)CC[C@]4(C)[C@H]3C[C@H](OC(=O)CN)[C@]12C [Compound 341]	–	1.8 (≈ 2.6 µM)	–	1.0 (≈ 1.45 µM)	0.7
CCCCCCCCOC(=O)CC[C@@H](C)[C@H]1CC[C@H]2[C@@H]3[C@H](OC(=O)CCCN)C[C@@H]4C[C@H](OC(=O)CCCN)CC[C@]4(C)[C@H]3C[C@H](OC(=O)CCCN)[C@]12C [Compound 343]	–	1.2 (≈ 1.55 µM)	–	3.5 (≈ 4.51 µM)	3.5
